Source: the NIST ThermoML archive (doi:10.1021/je700260f)
Numbers after ± are expanded uncertainties.

Settings: 313.15 K, Liquid, Vibrating tube method

FC(C(F)(F)F)C(F)(F)F [1,1,1,2,3,3,3-heptafluoropropane]
Settings	mass density [kg/m3]
24813 kPa	1470.8 ± 1.6
24848 kPa	1470.8 ± 1.6
24899 kPa	1471.1 ± 1.6
24951 kPa	1471.3 ± 1.6
24991 kPa	1471.5 ± 1.6
25031 kPa	1471.7 ± 1.6
25225 kPa	1472.4 ± 1.6
25266 kPa	1472.5 ± 1.6
25303 kPa	1472.6 ± 1.6
25346 kPa	1472.9 ± 1.6
25382 kPa	1473 ± 1.6
25428 kPa	1473.2 ± 1.6
25464 kPa	1473.3 ± 1.6
27024 kPa	1479.1 ± 1.7
27078 kPa	1479.5 ± 1.7
27113 kPa	1479.5 ± 1.7
27168 kPa	1479.8 ± 1.7
27215 kPa	1479.9 ± 1.7
27250 kPa	1480.2 ± 1.7
27333 kPa	1480.4 ± 1.7
27378 kPa	1480.4 ± 1.7
27415 kPa	1480.8 ± 1.7
27452 kPa	1480.9 ± 1.7
27512 kPa	1481.1 ± 1.7
27562 kPa	1481.4 ± 1.7
27616 kPa	1481.6 ± 1.7
27789 kPa	1482.1 ± 1.7
27894 kPa	1482.6 ± 1.7
27923 kPa	1482.7 ± 1.7
27959 kPa	1482.7 ± 1.7
27997 kPa	1482.8 ± 1.7
28031 kPa	1483 ± 1.7
28065 kPa	1483.1 ± 1.7
28094 kPa	1483.2 ± 1.7
28137 kPa	1483.5 ± 1.7
28166 kPa	1483.6 ± 1.7
28213 kPa	1483.6 ± 1.7
28253 kPa	1483.8 ± 1.7
28282 kPa	1484 ± 1.7
28311 kPa	1484 ± 1.7
28349 kPa	1484.3 ± 1.7
28389 kPa	1484.3 ± 1.7
28424 kPa	1484.5 ± 1.7
28465 kPa	1484.6 ± 1.7
28499 kPa	1484.8 ± 1.7
28538 kPa	1484.9 ± 1.7
28567 kPa	1485 ± 1.7
28613 kPa	1485.2 ± 1.7
28643 kPa	1485.2 ± 1.7
28674 kPa	1485.3 ± 1.7
28717 kPa	1485.6 ± 1.7
28761 kPa	1485.7 ± 1.7
29100 kPa	1487 ± 1.7
29135 kPa	1487 ± 1.7
29166 kPa	1487.2 ± 1.7
29208 kPa	1487.3 ± 1.7
29239 kPa	1487.5 ± 1.7
29269 kPa	1487.5 ± 1.7
29305 kPa	1487.6 ± 1.7
29341 kPa	1487.9 ± 1.7
29381 kPa	1487.9 ± 1.7
29416 kPa	1488 ± 1.7
29450 kPa	1488.1 ± 1.7
29496 kPa	1488.3 ± 1.7
29525 kPa	1488.6 ± 1.7
29570 kPa	1488.6 ± 1.7
29610 kPa	1488.7 ± 1.7
31429 kPa	1495.1 ± 1.7
31477 kPa	1495.4 ± 1.7
31513 kPa	1495.4 ± 1.7
31554 kPa	1495.6 ± 1.7
31782 kPa	1496.5 ± 1.7
31819 kPa	1496.4 ± 1.7
31856 kPa	1496.6 ± 1.7
31894 kPa	1496.7 ± 1.7
31931 kPa	1496.9 ± 1.7
31964 kPa	1497 ± 1.7
32008 kPa	1497.3 ± 1.7
32040 kPa	1497.3 ± 1.7
32094 kPa	1497.4 ± 1.7
32170 kPa	1497.7 ± 1.7
32235 kPa	1497.9 ± 1.7
32288 kPa	1498.1 ± 1.7
32326 kPa	1498.2 ± 1.7
32700 kPa	1499.5 ± 1.7
33062 kPa	1500.7 ± 1.7
33127 kPa	1500.8 ± 1.7
33176 kPa	1501.1 ± 1.7
33220 kPa	1501.2 ± 1.7
33258 kPa	1501.4 ± 1.7
33290 kPa	1501.5 ± 1.7
33332 kPa	1501.7 ± 1.7
33375 kPa	1501.7 ± 1.7
33408 kPa	1501.8 ± 1.7
33462 kPa	1501.9 ± 1.7
33502 kPa	1502.1 ± 1.7
33551 kPa	1502.5 ± 1.7
33585 kPa	1502.3 ± 1.7
33640 kPa	1502.6 ± 1.7
33684 kPa	1502.6 ± 1.7
33729 kPa	1502.8 ± 1.7
33763 kPa	1503 ± 1.7
33807 kPa	1503.2 ± 1.7
